In ChEMBL document CHEMBL1201862, “PubChem BioAssay data set” (2004):
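Cultured in 96-well plates, cells were exposed to test compound for 48 hours across five concentrations. GI50 = concentration required for 50% inhibition of growth.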 Active and inactive are the calls of the source. Cut-off read from the data, not from the text of the source: active = GI50 up to about 1.1 µM and inactive = higher.

Experiments:
Experiment in all cases: growth of human tumour cells (NCI), 48 h
NCI-H522 = system: NCI-H522
OVCAR-8 = system: OVCAR-8
TK-10 = system: TK-10
SK-MEL-5 = system: SK-MEL-5
OVCAR-5 = system: OVCAR-5
MOLT-4 = system: MOLT-4
EKVX = system: EKVX
LXFL 529 = system: LXFL 529
HOP-62 = system: HOP-62
A498 = system: A498
K562 = system: K562
786-0 = system: 786-0
U-251 = system: U-251
OVCAR-4 = system: OVCAR-4
CAKI-1 = system: CAKI-1
RPMI-8226 = system: RPMI-8226
BT-549 = system: BT-549
T47D = system: T47D
PC-3 = system: PC-3
MDA-MB-231 = system: MDA-MB-231

SMILES | GI50 (NCI-H522) | GI50 (OVCAR-8) | GI50 (TK-10) | GI50 (SK-MEL-5) | GI50 (OVCAR-5) | GI50 (MOLT-4) | GI50 (EKVX) | GI50 (LXFL 529) | GI50 (HOP-62) | GI50 (A498) | GI50 (K562) | GI50 (786-0) | GI50 (U-251) | GI50 (OVCAR-4) | GI50 (CAKI-1) | GI50 (RPMI-8226) | GI50 (BT-549) | GI50 (T47D) | GI50 (PC-3) | GI50 (MDA-MB-231)
COc1cc2c(c(O)c1C)C(=O)CC(c1ccccc1)O2 (stereo unspecified) | 50.2 µM (inactive) | > 100 µM (inactive) | 32.2 µM (inactive) | 18.2 µM (inactive) | 39.1 µM (inactive) | 32.8 µM (inactive) | 89.3 µM (inactive) | 56.2 µM (inactive) | > 100 µM (inactive) | 64.1 µM (inactive) | 50.2 µM (inactive) | 59.7 µM (inactive) | 56.4 µM (inactive) | > 10 µM (inactive) | 94.8 µM (inactive) | – | – | – | – | –
O=C(O)C1=C(Cl)c2ccccc2S1(=O)=O | 19.8 µM (inactive) | > 100 µM (inactive) | > 100 µM (inactive) | > 100 µM (inactive) | > 100 µM (inactive) | > 100 µM (inactive) | > 100 µM (inactive) | > 100 µM (inactive) | > 100 µM (inactive) | – | > 100 µM (inactive) | > 100 µM (inactive) | – | > 100 µM (inactive) | > 100 µM (inactive) | > 100 µM (inactive) | – | – | – | –
N#CCCN(CCC#N)c1ccc(/C=C2\N=C(c3cc([N+](=O)[O-])ccc3Cl)OC2=O)cc1 | 14 µM (inactive) | 19.1 µM (inactive) | – | 16 µM (inactive) | > 100 µM (inactive) | 24.2 µM (inactive) | > 100 µM (inactive) | 18.1 µM (inactive) | 35.4 µM (inactive) | > 100 µM (inactive) | 18.2 µM (inactive) | 34.4 µM (inactive) | 17.6 µM (inactive) | 30 µM (inactive) | > 100 µM (inactive) | 88.7 µM (inactive) | – | – | – | –
O=C1C(C2=[N+]([O-])c3ccccc3C2=O)=[N+]([O-])c2ccccc21 | – | 24.7 µM (inactive) | 35.4 µM (inactive) | 17.8 µM (inactive) | 94.4 µM (inactive) | 15.3 µM (inactive) | 16.6 µM (inactive) | 17 µM (inactive) | – | 25.4 µM (inactive) | 19.7 µM (inactive) | 20.6 µM (inactive) | 20.4 µM (inactive) | 14.5 µM (inactive) | – | 20.2 µM (inactive) | – | – | – | –
NC(=S)N/N=C/c1nccc2ccccc12 | 0.719 µM (active) | 0.313 µM (active) | 4.93 µM (inactive) | 0.467 µM (active) | 0.685 µM (active) | 0.461 µM (active) | – | 1.96 µM (inactive) | 0.619 µM (active) | 0.515 µM (active) | 2.73 µM (inactive) | 0.2 µM (active) | 0.296 µM (active) | 0.54 µM (active) | 0.738 µM (active) | 1.22 µM (inactive) | – | – | – | –
C=C1C(=O)C=C[C@]2(C)CC[C@H]3C(=C)C(=O)O[C@@H]3[C@@H]12 | 0.753 µM (active) | 1.53 µM (inactive) | 0.419 µM (active) | 2.34 µM (inactive) | 1.33 µM (inactive) | 0.52 µM (active) | 3.17 µM (inactive) | – | 2.48 µM (inactive) | 3.52 µM (inactive) | 1.39 µM (inactive) | 0.461 µM (active) | 2.13 µM (inactive) | 2.21 µM (inactive) | 2.22 µM (inactive) | 0.346 µM (active) | 2.35 µM (inactive) | 2.22 µM (inactive) | 2.84 µM (inactive) | 4.08 µM (inactive)
COc1cc(Nc2nc3ccccc3nc2-c2cccs2)cc(OC)c1OC | – | > 10 µM (inactive) | 35.8 µM (inactive) | – | > 100 µM (inactive) | 12.9 µM (inactive) | 89.5 µM (inactive) | 17.3 µM (inactive) | 39.4 µM (inactive) | – | – | 22.4 µM (inactive) | > 10 µM (inactive) | – | – | 26.9 µM (inactive) | – | – | – | –
C/C(=N\NC(N)=S)c1ccc(C)c(C)c1 | – | 66.2 µM (inactive) | 53.5 µM (inactive) | 69.2 µM (inactive) | 29.1 µM (inactive) | 15.8 µM (inactive) | 3.31 µM (inactive) | 19.4 µM (inactive) | > 100 µM (inactive) | 66.7 µM (inactive) | 36.6 µM (inactive) | 44.6 µM (inactive) | 88.9 µM (inactive) | 23.9 µM (inactive) | 92.5 µM (inactive) | 34.5 µM (inactive) | – | – | – | –
COc1ccc(/C(=N\NC(=O)C(N)=O)C(c2ccc(OC)cc2)C2(O)C(=O)Nc3c(Cl)cccc32)cc1 (stereo unspecified) | – | > 100 µM (inactive) | > 100 µM (inactive) | > 100 µM (inactive) | > 100 µM (inactive) | 82.4 µM (inactive) | > 100 µM (inactive) | > 100 µM (inactive) | > 100 µM (inactive) | – | – | 74.8 µM (inactive) | > 100 µM (inactive) | > 100 µM (inactive) | – | > 100 µM (inactive) | – | – | – | –
Cc1cc(O)nc(NNC(C#N)c2ccco2)n1 (stereo unspecified) | > 100 µM (inactive) | > 100 µM (inactive) | > 100 µM (inactive) | > 100 µM (inactive) | > 100 µM (inactive) | > 100 µM (inactive) | – | > 100 µM (inactive) | > 100 µM (inactive) | – | > 100 µM (inactive) | > 100 µM (inactive) | > 100 µM (inactive) | > 100 µM (inactive) | > 100 µM (inactive) | > 100 µM (inactive) | – | – | – | –
CC(=O)Oc1cc(OC(C)=O)c(OC(C)=O)c2c1CC1C(=O)C3(CCc4ccccc43)C(=O)C1C2 (stereo unspecified) | – | 14.2 µM (inactive) | 17.4 µM (inactive) | – | – | – | 20 µM (inactive) | 14.4 µM (inactive) | 21.1 µM (inactive) | – | 9.2 µM (inactive) | 13.6 µM (inactive) | 15.8 µM (inactive) | 11.7 µM (inactive) | 20.2 µM (inactive) | 0.555 µM (active) | – | – | – | –
O=C(O)CCCc1cc2c(s1)-c1cccc3cccc-2c13 | 21 µM (inactive) | 39.4 µM (inactive) | 49 µM (inactive) | – | > 100 µM (inactive) | 24.1 µM (inactive) | – | 35 µM (inactive) | 33.3 µM (inactive) | – | 31.9 µM (inactive) | > 100 µM (inactive) | 25.4 µM (inactive) | 76.9 µM (inactive) | 32.6 µM (inactive) | 21.5 µM (inactive) | – | – | – | –
Cc1cc(O)nc(NNC(C#N)c2cccc([N+](=O)[O-])c2)n1 (stereo unspecified) | > 100 µM (inactive) | > 100 µM (inactive) | > 100 µM (inactive) | > 100 µM (inactive) | > 100 µM (inactive) | > 100 µM (inactive) | – | > 100 µM (inactive) | > 100 µM (inactive) | – | > 100 µM (inactive) | > 100 µM (inactive) | > 100 µM (inactive) | > 100 µM (inactive) | > 100 µM (inactive) | > 100 µM (inactive) | – | – | – | –
COc1cc2oc(=O)cc(C)c2cc1O | > 100 µM (inactive) | > 100 µM (inactive) | > 100 µM (inactive) | > 100 µM (inactive) | > 100 µM (inactive) | > 100 µM (inactive) | > 100 µM (inactive) | – | > 100 µM (inactive) | > 100 µM (inactive) | > 100 µM (inactive) | > 100 µM (inactive) | > 100 µM (inactive) | > 100 µM (inactive) | > 100 µM (inactive) | > 100 µM (inactive) | > 100 µM (inactive) | 41 µM (inactive) | > 100 µM (inactive) | > 100 µM (inactive)
CC1CC/C(=C\c2ccc(Cl)cc2)c2nc(N)c(C#N)c(-c3ccc(Cl)cc3)c21 (stereo unspecified) | 30.3 µM (inactive) | 63.2 µM (inactive) | 45.4 µM (inactive) | 41.8 µM (inactive) | > 100 µM (inactive) | 14.1 µM (inactive) | 80.7 µM (inactive) | – | 70.6 µM (inactive) | 26.3 µM (inactive) | 31.5 µM (inactive) | > 100 µM (inactive) | 17.7 µM (inactive) | > 100 µM (inactive) | 21.8 µM (inactive) | 19.7 µM (inactive) | 75.5 µM (inactive) | 55.3 µM (inactive) | 13.8 µM (inactive) | > 100 µM (inactive)
CN(Cc1ccccc1)C1(N(C)Cc2ccccc2)CC1 | > 100 µM (inactive) | > 100 µM (inactive) | > 100 µM (inactive) | > 100 µM (inactive) | > 100 µM (inactive) | > 100 µM (inactive) | > 100 µM (inactive) | > 100 µM (inactive) | > 100 µM (inactive) | > 100 µM (inactive) | > 100 µM (inactive) | > 100 µM (inactive) | > 100 µM (inactive) | > 100 µM (inactive) | > 100 µM (inactive) | – | – | – | – | –
CCOC1c2cc(C(C)C)c(O)c(O)c2[C@@]23CCCC(C)(C)C2C1OC3=O (stereo partly specified) | 30.6 µM (inactive) | > 100 µM (inactive) | > 100 µM (inactive) | 70.3 µM (inactive) | > 100 µM (inactive) | 50 µM (inactive) | > 100 µM (inactive) | > 100 µM (inactive) | > 100 µM (inactive) | – | > 100 µM (inactive) | > 100 µM (inactive) | > 100 µM (inactive) | – | > 100 µM (inactive) | 40.6 µM (inactive) | – | – | – | –
COc1ccc(-c2c3c(cc4cc5c(cc24)OCO5)C(=O)OC3)cc1OC | 0.392 µM (active) | 0.24 µM (active) | 42.2 µM (inactive) | 0.119 µM (active) | 9.55 µM (inactive) | 3.62 µM (inactive) | 1.96 µM (inactive) | – | 0.313 µM (active) | 20.4 µM (inactive) | 0.69 µM (active) | 2.12 µM (inactive) | 4.67 µM (inactive) | 2.47 µM (inactive) | 0.571 µM (active) | 0.0447 µM (active) | 0.51 µM (active) | 0.386 µM (active) | 4.01 µM (inactive) | 3.02 µM (inactive)
